Biological target: T1, CAMK1 (CaMK1) (Homo sapiens, UniProt Q14012)
T1 construct: purchased Thermo Fisher Scientific (Life Technologies) SelectScreen
Assay: SelectScreen Adapta
Type: biochemical
Details: ATP 10 µM
Summary of the method: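 Compound tested in SelectScreen activity assays, Z'LYTE for CSF1R, CDK1/cyclin B and MAP2K6 and Adapta for CAMK1. ATP for CAMK1 was listed as 10, and Km app was used for CSF1R. Results are expressed in percent.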

T1 sequence (Q14012 whole entry): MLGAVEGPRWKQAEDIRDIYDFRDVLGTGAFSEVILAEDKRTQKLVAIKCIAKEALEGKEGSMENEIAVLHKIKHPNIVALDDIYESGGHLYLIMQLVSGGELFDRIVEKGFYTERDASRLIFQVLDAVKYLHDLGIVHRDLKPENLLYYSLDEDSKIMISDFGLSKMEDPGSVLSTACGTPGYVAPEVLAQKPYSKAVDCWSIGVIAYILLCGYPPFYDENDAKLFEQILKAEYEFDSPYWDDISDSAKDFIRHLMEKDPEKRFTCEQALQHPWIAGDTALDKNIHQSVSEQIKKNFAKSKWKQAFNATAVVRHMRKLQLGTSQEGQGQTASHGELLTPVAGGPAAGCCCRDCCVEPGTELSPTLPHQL

With CN(C(=O)CN1CCOCC1)c1ccc2sc3c(-c4cccc5c(=O)cc(N6CC7CCC(C6)O7)oc45)cccc3c2c1 [NU5455] the inhibition at 1 µM was 0.8%.
